According to ChEMBL document CHEMBL4024712, “Synthesis, stability and mechanistic studies of potent anticryptococcal hexapeptides” (Eur J Med Chem, 2017):
Values after ≈ are worked out from the molar mass of the structure shown. Active and inactive are the calls of the source. No cut-off for these calls is given here. Non-standard residues stand in square brackets, D forms with d. Residues, ends and D or L forms follow the SMILES beside them. His(τ-Bzl) = N[C@@H](Cc1cn(Cc2ccccc2)cn1)C(=O)O; Phe(4-Me) = Cc1ccc(C[C@H](N)C(=O)O)cc1; 1Nal = N[C@@H](Cc1cccc2ccccc12)C(=O)O; Bta = N[C@@H](Cc1csc2ccccc12)C(=O)O; Cha = N[C@@H](CC1CCCCC1)C(=O)O; Orn = NCCC[C@H](N)C(=O)O

Experiments:
Lipid bilayer [1] = assay: Binding affinity to EYPC/cholesterol small unilamellar vesicles at 0.1 uM by tryptophan fluorescence quenching assay; type: ADME
Staphylococcus aureus [2] = assay: Anti-bacterial activity against Staphylococcus aureus ATCC 29213 by CLSI method; type: functional
Nakaseomyces glabratus [3] = assay: Antifungal activity against Candida glabrata ATCC 90030 after 18 to 24 hrs by Alamar blue assay; type: functional
Candida albicans [4] = assay: Antifungal activity against Candida albicans ATCC 90028 after 18 to 24 hrs by Alamar blue assay; type: functional
Candida albicans [5] = assay: Fungicidal activity against Candida albicans ATCC 90028 after 18 to 24 hrs by Alamar blue assay; type: functional
Vero = assay: Cytotoxicity against African green monkey Vero cells up to 10 ug/ml after 48 hrs by neutral red dye based assay; type: cell-based; conditions: chlorocebus sabaeus
Aspergillus fumigatus [6] = assay: Antifungal activity against Aspergillus fumigatus ATCC 90906 after 68 to 72 hrs by Alamar blue assay; type: functional
Lipid bilayer [7] = assay: Binding affinity to EYPC/EYPG small unilamellar vesicles at 0.1 uM by tryptophan fluorescence quenching assay
[8] = tested on: Mycobacterium intracellulare; assay: Anti-bacterial activity against Mycobacterium intracellulare ATCC 23068 after 68 to 72 hrs by Alamar blue assay; type: functional, cell-based
Pichia kudriavzevii [9] = assay: Fungicidal activity against Candida krusei ATCC 6258 after 18 to 24 hrs by Alamar blue assay; type: functional
Cryptococcus neoformans [10] = assay: Fungicidal activity against Cryptococcus neoformans ATCC 90113 after 68 to 72 hrs by Alamar blue assay; type: functional
[11] = Selectivity index ratio of cytotoxic concentration against African green monkey Vero cells to IC50 for Cryptococcus neoformans ATCC 90113; type: toxicity; conditions: read-out: Selectivity Index
Pseudomonas aeruginosa = assay: Anti-bacterial activity against Pseudomonas aeruginosa ATCC 27853 by CLSI method; type: functional
Escherichia coli [12] = assay: Anti-bacterial activity against Escherichia coli ATCC 35218 by CLSI method; type: functional
Nakaseomyces glabratus [13] = assay: Fungicidal activity against Candida glabrata ATCC 90030 after 18 to 24 hrs by Alamar blue assay; type: functional
Aspergillus fumigatus [14] = assay: Fungicidal activity against Aspergillus fumigatus ATCC 90906 after 68 to 72 hrs by Alamar blue assay; type: functional
Staphylococcus aureus [15] = assay: Anti-bacterial activity against methicillin-resistant Staphylococcus aureus ATCC 33591 by CLSI method; type: functional; conditions: for MIC: Staphylococcus aureus, ATCC 33591
Pichia kudriavzevii [16] = assay: Antifungal activity against Candida krusei ATCC 6258 after 18 to 24 hrs by Alamar blue assay; type: functional; conditions: Pichia kudriavzevii, ATCC 6258; for IC50: read-out: IC50
Cryptococcus neoformans [17] = assay: Antifungal activity against Cryptococcus neoformans ATCC 90113 after 68 to 72 hrs by Alamar blue assay; type: functional
Staphylococcus aureus [18] = assay: Bactericidal activity against methicillin-resistant Staphylococcus aureus ATCC 33591 by CLSI method; type: functional
Staphylococcus aureus [19] = assay: Bactericidal activity against Staphylococcus aureus ATCC 29213 by CLSI method; type: functional
Escherichia coli [20] = assay: Bactericidal activity against Escherichia coli ATCC 35218 by CLSI method; type: functional
[21] = Proteolytic stability assessed as trypsin (unknown origin)-mediated compound hydrolysis at compound to trypsin ratio of 0.5 to […] measured after 24 hrs by RP-HPLC method; type: ADME; conditions: human
[22] = Nakaseomyces glabratus, ATCC 90030
[23] = Staphylococcus aureus, ATCC 29213
[24] = Aspergillus fumigatus, ATCC 90906
[25] = Escherichia coli, ATCC 35218, read-out: IC50

Row | Compound | Activity (Lipid bilayer [1]) | MIC (Nakaseomyces glabratus [3]; [22]) [µg/mL] | MIC (Candida albicans [4]; Candida albicans, ATCC 90028) [µg/mL] | MFC (Candida albicans [5]) [µg/mL] | Activity (Vero) | IC50 (Aspergillus fumigatus [6]) | Activity (Lipid bilayer [7]) | IC50 [8] | MFC (Pichia kudriavzevii [9]) [µg/mL] | MFC (Cryptococcus neoformans [10]) [µg/mL] | selectivity ratio [11] | IC50 (Pseudomonas aeruginosa) | MFC (Nakaseomyces glabratus [13]) [µg/mL] | MIC (Staphylococcus aureus [2]; [23]) [µg/mL] | MFC (Aspergillus fumigatus [14]) [µg/mL] | MIC (Staphylococcus aureus [15]) [µg/mL] | MIC (Pichia kudriavzevii [16]) [µg/mL] | MIC (Cryptococcus neoformans [17]) [µg/mL] | MBC (Staphylococcus aureus [18]) [µg/mL] | MBC (Staphylococcus aureus [19]) [µg/mL] | also measured
1 | CC[C@H](C)[C@H](NC(=O)[C@H](CC1CCCCC1)NC(=O)[C@@H](Cc1c[nH]c2ccccc12)NC(=O)[C@@H](N)CCCN)C(=O)N[C@@H](CC1CCCCC1)C(=O)N[C@@H](Cc1cn(Cc2ccccc2)cn1)C(N)=O (H-[Orn][dW][Cha]I[Cha][His(τ-Bzl)]-NH2) | Non-Toxic | 20 (≈ 20.7 µM) | 20 (≈ 20.7 µM) | 20 (≈ 20.7 µM) | Non-Toxic | Not Active | Active | Not Active | 20 (≈ 20.7 µM) | 1.25 (≈ 1.3 µM) | 21 to 25 | Not Active |  |  |  |  |  |  |  |  | IC50 (Staphylococcus aureus [2]; Staphylococcus aureus, ATCC 29213, read-out: IC50): 17.5 µg/mL (≈ 18.1 µM); IC50 (Candida albicans [4]; Candida albicans, ATCC 90028, read-out: IC50): 17.4 µg/mL (≈ 18 µM); IC50 (Escherichia coli [12]): Not Active
2 | NCCC[C@H](N)C(=O)N[C@H](Cc1c[nH]c2ccccc12)C(=O)N[C@@H](CC1CCCCC1)C(=O)N[C@@H](Cc1cccc2ccccc12)C(=O)N[C@H](Cc1ccccc1)C(=O)N[C@@H](Cc1cn(Cc2ccccc2)cn1)C(N)=O (H-[Orn][dW][Cha][1Nal][dF][His(τ-Bzl)]-NH2) |  | 20 (≈ 19.2 µM) | 20 (≈ 19.2 µM) | 20 (≈ 19.2 µM) | Non-Toxic |  |  | Not Active |  |  |  | Not Active | 20 (≈ 19.2 µM) | 10 (≈ 9.59 µM) | 20 (≈ 19.2 µM) | 10 (≈ 9.59 µM) | 10 (≈ 9.59 µM) | 2.5 (≈ 2.4 µM) | 20 (≈ 19.2 µM) | 10 (≈ 9.59 µM) | 
3 | NCCC[C@H](N)C(=O)N[C@H](Cc1c[nH]c2ccccc12)C(=O)N[C@@H](CC1CCCCC1)C(=O)N[C@@H](Cc1csc2ccccc12)C(=O)N[C@H](Cc1ccccc1)C(=O)N[C@@H](Cc1cn(Cc2ccccc2)cn1)C(N)=O (H-[Orn][dW][Cha][Bta][dF][His(τ-Bzl)]-NH2) |  | 10 (≈ 9.54 µM) | 10 (≈ 9.54 µM) |  | Non-Toxic |  |  | Not Active | 10 (≈ 9.54 µM) | 1.25 (≈ 1.19 µM) |  |  | 10 (≈ 9.54 µM) |  | 10 (≈ 9.54 µM) | 10 (≈ 9.54 µM) | 10 (≈ 9.54 µM) |  | 20 (≈ 19.1 µM) | 10 (≈ 9.54 µM) | IC50 (Pichia kudriavzevii [16]): 6.51 µg/mL (≈ 6.21 µM); MIC (Aspergillus fumigatus [6]; [24]): 10 µg/mL (≈ 9.54 µM); MBC (Escherichia coli [20]): 20 µg/mL (≈ 19.1 µM)
4 | NCCC[C@H](N)C(=O)N[C@H](Cc1c[nH]c2ccccc12)C(=O)N[C@@H](CC1CCCCC1)C(=O)N[C@@H](CC1CCCCC1)C(=O)N[C@H](Cc1ccccc1)C(=O)N[C@@H](Cc1cn(Cc2ccccc2)cn1)C(N)=O (H-[Orn][dW][Cha][Cha][dF][His(τ-Bzl)]-NH2) |  |  | 10 (≈ 10 µM) | 10 (≈ 10 µM) | Non-Toxic |  |  |  | 10 (≈ 10 µM) |  |  | Not Active |  | 10 (≈ 10 µM) | 20 (≈ 20 µM) |  | 10 (≈ 10 µM) | 1.25 (≈ 1.25 µM) | 20 (≈ 20 µM) |  | IC50 (Nakaseomyces glabratus [3]): Not Active; MIC (Aspergillus fumigatus [6]; [24]): 20 µg/mL (≈ 20 µM); MBC (Escherichia coli [20]): 20 µg/mL (≈ 20 µM); MIC (Escherichia coli [12]; Escherichia coli, ATCC 35218): 20 µg/mL (≈ 20 µM); IC50 (Escherichia coli [12]; [25]): 10 µg/mL (≈ 10 µM)
5 | Cc1ccc(C[C@H](NC(=O)[C@@H](Cc2ccccc2)NC(=O)[C@@H](Cc2c[nH]c3ccccc23)NC(=O)[C@@H](N)CCCN)C(=O)N[C@H](Cc2ccccc2)C(=O)N[C@@H](CCCN)C(N)=O)cc1 (H-[Orn][dW][dF][Phe(4-Me)][dF][Orn]-NH2) | Non-Toxic |  |  |  | Non-Toxic | Not Active | Active | Not Active | 20 (≈ 22.5 µM) | 0.63 (≈ 0.71 µM) | 21 to 25 | Not Active |  |  |  |  | 20 (≈ 22.5 µM) | 0.63 (≈ 0.71 µM) |  |  | IC50 (Staphylococcus aureus [2]): Not Active; IC50 (Nakaseomyces glabratus [3]): Not Active; IC50 (Candida albicans [4]): Not Active; IC50 (Staphylococcus aureus [15]): Not Active; IC50 (Pichia kudriavzevii [16]): 15.5 µg/mL (≈ 17.5 µM); Stability [21]: Stable; IC50 (Cryptococcus neoformans [17]): 0.46 µg/mL (≈ 0.519 µM); IC50 (Escherichia coli [12]; [25]): 16.5 µg/mL (≈ 18.6 µM)
6 | C[C@@H]1[C@H](O)[C@@H](C)/C=C/C=C/C=C/C=C/C=C/C=C/C=C/[C@H](O[C@@H]2O[C@H](C)[C@@H](O)[C@H](N)[C@@H]2O)C[C@@H]2O[C@](O)(C[C@@H](O)C[C@@H](O)[C@H](O)CC[C@@H](O)C[C@@H](O)CC(=O)O[C@H]1C)C[C@H](O)[C@H]2C(=O)O [AMPHOTERICIN B] |  | 0.63 (≈ 0.682 µM) |  |  |  |  |  |  |  |  |  |  |  |  | 5 (≈ 5.41 µM) |  |  |  |  |  | IC50 (Nakaseomyces glabratus [3]; Nakaseomyces glabratus, ATCC 90030, read-out: IC50): 0.34 µg/mL (≈ 0.368 µM); IC50 (Aspergillus fumigatus [6]; Aspergillus fumigatus, ATCC 90906, read-out: IC50): 1.2 µg/mL (≈ 1.3 µM)
